# Results as given in US11952344B2, “Heterocyclic compound and use thereof” (TAKEDA PHARMACEUTICAL COMPANY LIMITED, priority 2019, dated 2024).
# Biological target: T1, Human NMDA (NR1/NR2B) Receptor (Homo sapiens, UniProt Q13224)
# T1 construct: host or cells: HEK293
# Assay: NR2B Ca2+ influx assay
# Assay type: cell-based
# Conditions: 10 μM compound; HEK293 cells expressing GRIN1 and GRIN2B; glutamic acid/glycine-induced Ca2+ influx, Fluo-4 fluorescence; read-out: inhibitory rate (10 μM compound concentration)
# Excerpt: Experimental Example 1 NR2B Ca^2+ Influx Assay
# To confirm the “antagonistic action on an NMDA receptor containing the NR2B subunit” of the compound of the present invention, human embryonic kidney cell expressing the “NMDA receptor composed of four subunits including 2 sets of heterodimers of NR1 and NR2B”, specifically HEK293 cell expressing human glutamate ionotropic receptor NMDA type subunit 1 (GRIN1) and human glutamate ionotropic receptor NMDA type subunit 2B (GRIN2B), was used and the activation suppressive effect (inhibitory activity) on the receptors by the compound of the present invention was measured.
# HEK293 cells that express GRIN1 and GRIN2B were purchased from ChanTest (Human NMDA (NR1/NR2B) Receptor-expressing, stable replicating cell line (HEK293) catalog No. CT6121).
# As an index of the NMDA receptor activation, intracellular calcium ion (Ca^2+) influx caused by the binding of glycine and glutamic acid with NR1 and NR2B, respectively, was used.
# HEK293 cells that express GRIN1 and GRIN2B were cultured in a cell culture flask in DMEM/F-12 (COSMO BIO, 10-092-CM) medium added with 10% FBS (fetal bovine serum, AusGene), 100 units/mL penicillin, 100 μg/mL streptomycin, 500 μg/mL neomycin, 100 μg/mL Zeocin (registered trade mark, Invitrogen), 5 μg/mL Blasticidin, in an incubator (37° C., 5% CO2).
# The cells were detached from flask with trypsin the day before the assay, suspended in a seeding medium (DMEM (Invitrogen, 31053) added with 10% FBS, 100 units/mL penicillin, 100 μg/mL streptomycin) at 8×10^5 cells/mL, seeded by 25 μL/well in a 384-well plate (Falcon, 356663) at 20000 cells/well, and cultured overnight in an incubator. On the day of the assay, tetracycline (Wako Pure Chemical Industries, Ltd., 209-16561) was diluted with the seeding medium at 2 μg/mL, added at 25 μL/well to the plate seeded with the cells, and cultured for 2 hr in an incubator. Thereafter, the medium was removed, and the cells were washed with 50 μL/well assay buffer (137 mM NaCl, 4 mM KCl, 1.8 mM CaCl2, 10 mM HEPES (pH 7.2), 10 mM Glucose, 0.1% BSA). Then, a loading buffer (assay buffer added with 2.5 μM Fluo-4AM, 2 mM Amaranth, 1 mM Tartrazine) was added at 25 μL/well, and incubation was performed in the incubator for 30 min, and at room temperature for 15 min. A solution (25 μL/well) of the Example compound diluted with the above-mentioned assay buffer at 30 μM (final concentration 10 μM) was added, and the cells were stood for 15 min at room temperature. Using FDSS7000EX/μCELL (Hamamatsu Photonics K.K.), 25 μL/well of an assay buffer containing 30 μM glutamic acid, 30 μM glycine was added, and the fluorescence signal at wavelength of Excitation 480 nm, Emission 540 nm was measured every 3 seconds for 5 min. The inhibitory activity was calculated as a relative activity value (inhibitory rate) that inhibits 100% of the cumulative value of the fluorescence value of a well added with an assay buffer free of glutamic acid, glycine, relative to the cumulative value of the fluorescence value of each well.
# T1 sequence (Q13224 27-1484, other chains not shown): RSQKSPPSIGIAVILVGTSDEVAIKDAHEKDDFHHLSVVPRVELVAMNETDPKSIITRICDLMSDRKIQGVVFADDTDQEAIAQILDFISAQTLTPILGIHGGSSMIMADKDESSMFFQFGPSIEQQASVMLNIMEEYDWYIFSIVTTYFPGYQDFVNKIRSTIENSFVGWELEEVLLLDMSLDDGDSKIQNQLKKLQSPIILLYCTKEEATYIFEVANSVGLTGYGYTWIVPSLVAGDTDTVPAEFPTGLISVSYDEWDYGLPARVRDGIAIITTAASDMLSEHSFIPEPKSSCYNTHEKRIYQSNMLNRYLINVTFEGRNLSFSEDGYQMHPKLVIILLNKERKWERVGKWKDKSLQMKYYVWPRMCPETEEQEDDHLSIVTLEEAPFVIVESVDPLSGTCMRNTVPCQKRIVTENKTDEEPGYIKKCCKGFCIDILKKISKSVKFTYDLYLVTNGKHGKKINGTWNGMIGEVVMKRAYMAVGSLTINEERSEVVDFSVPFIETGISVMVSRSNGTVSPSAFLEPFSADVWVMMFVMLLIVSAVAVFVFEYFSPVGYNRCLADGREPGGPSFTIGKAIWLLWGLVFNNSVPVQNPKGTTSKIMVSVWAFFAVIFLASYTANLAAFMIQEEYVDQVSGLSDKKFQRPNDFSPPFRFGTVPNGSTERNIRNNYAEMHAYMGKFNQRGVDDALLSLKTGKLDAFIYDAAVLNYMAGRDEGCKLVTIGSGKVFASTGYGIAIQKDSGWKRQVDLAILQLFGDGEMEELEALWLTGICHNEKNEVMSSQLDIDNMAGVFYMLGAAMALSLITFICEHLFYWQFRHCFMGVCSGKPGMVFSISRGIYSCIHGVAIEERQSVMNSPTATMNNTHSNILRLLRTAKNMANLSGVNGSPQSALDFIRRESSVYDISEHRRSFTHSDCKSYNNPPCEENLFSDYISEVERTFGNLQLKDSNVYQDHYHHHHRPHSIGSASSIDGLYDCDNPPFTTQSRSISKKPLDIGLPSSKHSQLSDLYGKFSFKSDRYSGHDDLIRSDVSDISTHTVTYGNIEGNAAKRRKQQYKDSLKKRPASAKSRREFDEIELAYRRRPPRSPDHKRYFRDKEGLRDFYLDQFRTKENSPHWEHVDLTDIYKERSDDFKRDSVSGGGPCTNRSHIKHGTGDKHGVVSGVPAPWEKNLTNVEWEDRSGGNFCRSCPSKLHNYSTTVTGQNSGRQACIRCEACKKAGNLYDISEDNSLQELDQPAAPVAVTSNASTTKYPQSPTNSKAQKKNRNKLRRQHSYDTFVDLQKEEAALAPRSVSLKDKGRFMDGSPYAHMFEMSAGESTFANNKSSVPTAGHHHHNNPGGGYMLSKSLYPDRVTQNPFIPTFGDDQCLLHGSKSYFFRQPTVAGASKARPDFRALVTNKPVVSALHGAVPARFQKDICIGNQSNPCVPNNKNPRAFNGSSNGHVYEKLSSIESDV
row,SMILES,inhibition at 10 µM [%]
1,"O=C(NCc1cncnc1C1CC(F)(F)C1)c1cnc(OC(F)F)c(F)c1 [Example 36, N-{[4-(3,3-difluorocyclobutyl)-pyrimidin-5-yl]methyl}-6-(difluoromethoxy)-5-fluoropyridine-3-carboxamide]",92
2,"O=C(NCc1cncnc1C1CC1(F)F)c1cnc(OC(F)F)c(F)c1 (centres unmarked) [Example 37, N-{[4-(2,2-difluorocyclopropyl)-pyrimidin-5-yl]methyl}-6-(difluoromethoxy)-5-fluoropyridine-3-carboxamide]",84
3,"CCc1ccncc1CNC(=O)c1cnc(OC(F)F)c(F)c1 [Example 38, 6-(difluoromethoxy)-N-[(4-ethylpyridin-3-yl)methyl]-5-fluoropyridine-3-carboxamide]",94
4,"O=C(NCc1cncc(F)c1OC1CC1)c1cnc(OC(F)F)c(F)c1 [Example 39, N-{[4-(cyclopropyloxy)-5-fluoropyridin-3-yl]methyl}-6-(difluoromethoxy)-5-fluoropyridine-3-carboxamide]",97
5,"Cc1c(F)cncc1CNC(=O)c1cnc(OC(F)F)c(F)c1 [Example 40, 6-(difluoromethoxy)-5-fluoro-N-[(5-fluoro-4-methylpyridin-3-yl)methyl]pyridine-3-carboxamide]",96
6,"CCc1c(F)cncc1CNC(=O)c1cnc(OC(F)F)c(F)c1 [Example 41, 6-(difluoromethoxy)-N-[(4-ethyl-5-fluoropyridin-3-yl)methyl]-5-fluoropyridine-3-carboxamide]",94
7,"CC(F)(F)c1ccncc1CNC(=O)c1cnc(OC(F)F)c(F)c1 [Example 43, N-{[4-(1,1-difluoroethyl)pyridin-3-yl]methyl}-6-(difluoromethoxy)-5-fluoropyridine-3-carboxamide]",90
8,"COc1ncc(C(=O)NCc2cnccc2C)cc1F [Example 44, 5-fluoro-6-methoxy-N-[(4-methylpyridin-3-yl)methyl]pyridine-3-carboxamide]",79
9,"CCOc1ncc(C(=O)NCc2cnccc2C)cc1F [Example 45, 6-ethoxy-5-fluoro-N-[(4-methylpyridin-3-yl)methyl]pyridine-3-carboxamide]",91
10,"Cc1ccncc1CNC(=O)c1cnc(C2CC2)c(F)c1 [Example 46, 6-cyclopropyl-5-fluoro-N-[(4-methylpyridin-3-yl)methyl]pyridine-3-carboxamide]",95
11,"Cc1c(Cl)cncc1CNC(=O)c1cnc(OC(F)F)c(F)c1 [Example 47, N-[(5-chloro-4-methylpyridin-3-yl)methyl]-6-(difluoromethoxy)-5-fluoropyridine-3-carboxamide]",97
12,"Cc1ccncc1CNC(=O)c1ccc(OC(F)F)c(F)c1 [Example 48, 4-(difluoromethoxy)-3-fluoro-N-[(4-methylpyridin-3-yl)methyl]benzamide]",88
13,"Cc1ccncc1CNC(=O)c1ccc(OC(F)(F)F)c(F)c1 [Example 49, 3-fluoro-N-[(4-methylpyridin-3-yl)methyl]-4-(trifluoromethoxy)-benzamide]",94
14,"Cc1ccncc1CNC(=O)c1ccc(OC(F)F)cc1 [Example 50, 4-(difluoromethoxy)-N-[(4-methylpyridin-3-yl)methyl]benzamide]",90
15,"Cc1ccncc1CNC(=O)c1ccc(OC(F)F)nc1 [Example 51, 6-(difluoromethoxy)-N-[(4-methylpyridin-3-yl)methyl]pyridine-3-carboxamide]",87
16,"Cc1ccncc1CNC(=O)c1cnc(C(F)(F)F)c(Cl)c1 [Example 52, 5-chloro-N-[(4-methylpyridin-3-yl)methyl]-6-(trifluoromethyl)pyridine-3-carboxamide]",83
17,"Cc1ccncc1CNC(=O)c1ccc(C(F)(F)F)c(F)c1 [Example 53, 3-fluoro-N-[(4-methylpyridin-3-yl)methyl]-4-(trifluoromethyl)-benzamide]",91

# More lines, now with the values ahead:
row,inhibition at 10 µM [%],SMILES
1,94,"Cc1ccncc1CNC(=O)c1ccc(C(F)(F)F)c(Cl)c1 [Example 54, 3-chloro-N-[(4-methylpyridin-3-yl)methyl]-4-(trifluoromethyl)-benzamide]"
2,91,"Cc1ccncc1CNC(=O)c1cc(F)c(OC(F)F)c(F)c1 [Example 55, 4-(difluoromethoxy)-3,5-difluoro-N-[(4-methylpyridin-3-yl)methyl]benzamide]"
3,93,"Cc1ccncc1CNC(=O)c1csc(C2CC2)c1 [Example 56, 5-cyclopropyl-N-[(4-methylpyridin-3-yl)methyl]thiophene-3-carboxamide]"
4,78,"Cc1ccncc1CNC(=O)c1cc(F)c(C(F)F)c(F)c1 [Example 57, 4-(difluoromethyl)-3,5-difluoro-N-[(4-methylpyridin-3-yl)methyl]benzamide]"
5,85,"Cc1ccncc1CNC(=O)c1ccc(C(F)F)c(F)c1 [Example 58, 4-(difluoromethyl)-3-fluoro-N-[(4-methylpyridin-3-yl)methyl]benzamide]"
6,93,"Cc1ccncc1CNC(=O)c1ccc(C(F)F)c(Cl)c1 [Example 59, 3-chloro-4-(difluoromethyl)-N-[(4-methylpyridin-3-yl)methyl]benzamide]"
7,88,"COc1ccc(C(=O)NCc2cnccc2C)cc1F [Example 60, 3-fluoro-4-methoxy-N-[(4-methylpyridin-3-yl)methyl]benzamide]"
8,95,"CCOc1c(F)cncc1CNC(=O)c1cnc(OC(F)F)c(F)c1 [Example 61, 6-(difluoromethoxy)-N-[(4-ethoxy-5-fluoropyridin-3-yl)methyl]-5-fluoropyridine-3-carboxamide]"
9,87,"COc1ncncc1CNC(=O)c1cc(F)c(OC)c(F)c1 [Example 62, 3,5-difluoro-4-methoxy-N-[(4-methoxypyrimidin-5-yl)methyl]benzamide]"
10,85,"Cc1ccncc1CNC(=O)c1ccc(C(F)(F)F)s1 [Example 64, N-[(4-methylpyridin-3-yl)methyl]-5-(trifluoromethyl)thiophene-2-carboxamide]"
11,93,"CCOc1ncc(C(=O)NCc2cnccc2C)cc1Cl [Example 65, 5-chloro-6-ethoxy-N-[(4-methylpyridin-3-yl)methyl]pyridine-3-carboxamide]"
12,84,"COc1ncc(C(=O)NCc2cnccc2C)cc1Cl [Example 66, 5-chloro-6-methoxy-N-[(4-methylpyridin-3-yl)methyl]pyridine-3-carboxamide]"
13,92,"COc1c(F)cc(C(=O)NCc2cncc(F)c2C)cc1F [Example 67, 3,5-difluoro-N-[(5-fluoro-4-methylpyridin-3-yl)methyl]-4-methoxybenzamide]"
14,93,"Cc1c(F)cncc1CNC(=O)c1cc(F)c(OC(F)F)c(F)c1 [Example 68, 4-(difluoromethoxy)-3,5-difluoro-N-[(5-fluoro-4-methylpyridin-3-yl)methyl]benzamide]"
15,94,"Cc1c(F)cncc1CNC(=O)c1ccc(OC(F)F)c(F)c1 [Example 69, 4-(difiuoromethoxy)-3-fluoro-N-[(5-fluoro-4-methylpyridin-3-yl)methyl]benzamide]"
16,91,"O=C(NCc1cnccc1C(F)F)c1cnc(OC(F)F)c(F)c1 [Example 70, 6-(difluoromethoxy)-N-{[4-(difluoromethyl)pyridin-3-yl]methyl)-5-fluoropyridine-3-carboxamide]"
17,91,"COc1c(F)cc(C(=O)NCc2cnccc2C)cc1F [Example 71, 3,5-difluoro-4-methoxy-N-[(4-methylpyridin-3-yl)methyl]benzamide]"
18,87,"CCOc1c(F)cc(C(=O)NCc2cnccc2C)cc1F [Example 72, 4-ethoxy-3,5-difluoro-N-[(4-methylpyridin-3-yl)methyl]benzamide]"
